Data taken from patent US12421229B2, “Hydropyrido[1,2-α]pyrazine compounds for the treatment of autoimmune disease” (Hoffmann-La Roche Inc., priority 2019, dated 2025).
Blank lines part the entries; values can stand above or below the compound they belong to.

Biological target: T1, human TLR8 (Homo sapiens, UniProt Q9NR97)
T1 construct: host or cells: HEK293 (HEK-Blue hTLR8)
T1 sequence (Q9NR97 27-1041): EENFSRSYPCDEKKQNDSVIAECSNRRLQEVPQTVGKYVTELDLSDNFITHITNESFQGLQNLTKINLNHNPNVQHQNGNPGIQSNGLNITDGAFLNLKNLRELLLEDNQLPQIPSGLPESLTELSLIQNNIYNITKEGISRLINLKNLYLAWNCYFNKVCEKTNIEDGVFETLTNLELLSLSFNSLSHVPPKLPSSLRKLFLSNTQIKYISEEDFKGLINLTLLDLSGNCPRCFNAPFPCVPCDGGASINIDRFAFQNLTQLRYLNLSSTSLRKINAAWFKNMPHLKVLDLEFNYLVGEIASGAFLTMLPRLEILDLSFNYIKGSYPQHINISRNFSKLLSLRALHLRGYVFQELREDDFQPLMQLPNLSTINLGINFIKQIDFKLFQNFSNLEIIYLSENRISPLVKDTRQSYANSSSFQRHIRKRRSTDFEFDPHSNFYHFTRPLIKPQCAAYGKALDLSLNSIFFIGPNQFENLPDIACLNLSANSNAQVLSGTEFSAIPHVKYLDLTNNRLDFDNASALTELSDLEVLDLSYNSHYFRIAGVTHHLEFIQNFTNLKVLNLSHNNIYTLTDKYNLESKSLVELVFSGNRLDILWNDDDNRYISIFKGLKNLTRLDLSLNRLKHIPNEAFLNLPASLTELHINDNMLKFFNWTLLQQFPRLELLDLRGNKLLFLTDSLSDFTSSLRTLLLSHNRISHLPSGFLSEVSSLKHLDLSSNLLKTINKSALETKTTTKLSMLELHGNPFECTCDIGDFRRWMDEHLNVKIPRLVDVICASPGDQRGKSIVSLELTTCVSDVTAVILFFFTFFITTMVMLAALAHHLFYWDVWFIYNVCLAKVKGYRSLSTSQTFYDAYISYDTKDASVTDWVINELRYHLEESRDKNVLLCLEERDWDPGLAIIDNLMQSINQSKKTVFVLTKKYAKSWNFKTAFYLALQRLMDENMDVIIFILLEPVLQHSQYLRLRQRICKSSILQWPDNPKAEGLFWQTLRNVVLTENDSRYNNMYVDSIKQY
Assay: HEK293-Blue-hTLR-8 cells assay
Format: cell-based
Conditions: HEK293-Blue-hTLR8 cells, R848 stimulation, 20 hrs, SEAP reporter; read-out: HEK/hTLR8 IC50
Text: A stable HEK293-Blue-hTLR-8 cell line was purchased from InvivoGen (Cat. #: hkb-htlr8, San Diego, California, USA). These cells were originally designed for studying the stimulation of human TLR8 by monitoring the activation of NF-κB. A SEAP (secreted embryonic alkaline phosphatase) reporter gene was placed under the control of the IFN-β minimal promoter fused to five NF-κB and AP-1-binding sites. The SEAP was induced by activating NF-κB and AP-1 via stimulating HEK-Blue hTLR8 cells with TLR8 ligands. Therefore the reporter expression was declined by TLR8 antagonist under the stimulation of a ligand, such as R848, for incubation of 20 hrs. The cell culture supernatant SEAP reporter activity was determined using QUANTI-Blue™ kit (Cat. #: rep-qb1, Invivogen, San Diego, Ca, USA) at a wavelength of 640 nm, a detection medium that turns purple or blue in the presence of alkaline phosphatase.
HEK293-Blue-hTLR8 cells were incubated at a density of 250,000˜450,000 cells/mL in a volume of 170 μL in a 96-well plate in Dulbecco's Modified Eagle's medium (DMEM) containing 4.5 g/L glucose, 50 U/mL penicillin, […], […], 2 mM L-glutamine, 10% (v/v) heat-inactivated fetal bovine serum with addition of 20 μL test compound in a serial dilution in the presence of final DMSO at 1% and 10 μL of 60 uM R848 in above DMEM, perform incubation under 37° C. in a CO2 incubator for 20 hrs. Then 20 μL of the supernatant from each well was incubated with 180 μL Quanti-blue substrate solution at 37° C. for 2 hrs and the absorbance was read at 620˜655 nm using a spectrophotometer. The signaling pathway that TLR8 activation leads to downstream NF-κB activation has been widely accepted, and therefore similar reporter assay was modified for evaluating TLR8 antagonist.

IC50: 18 nM
Structure (SMILES): C[C@@H]1CN(c2ccc(C#N)c3ncccc23)C[C@@H]2C[C@H](c3ccc([C@@H]4CNCCO4)cc3)CCN21 [Example 27, 5-[(4R,8R,9aS)-4-methyl-8-[4-[(2R)-morpholin-2-yl]phenyl]-1,3,4,6,7,8,9,9a-octahydropyrido[1,2-a]pyrazin-2-yl]quinoline-8-carbonitrile]

IC50: 29 nM
Structure (SMILES): CO[C@H]1CN(c2ccc(C3CN([C@@H]4CCN5[C@@H](C4)CN(c4ccc(C#N)c6ncccc46)C[C@H]5C)C3)cc2)C[C@H]1N [Example 32, 5-[(4R,8R,9aS)-8-[3-[4-[(3R,4S)-3-amino-4-methoxy-pyrrolidin-1-yl]phenyl]azetidin-1-yl]-4-methyl-1,3,4,6,7,8,9,9a-octahydropyrido[1,2-a]pyrazin-2-yl]quinoline-8-carbonitrile]

IC50: 116 nM
Structure (SMILES): [2H]c1ccc2c(N3C[C@@H]4C[C@H](N5CCN(c6ccncc6)CC5)CCN4[C@H](C)C3)ccc(C#N)c2n1 [Example 37, 5-[(4R,8R,9aS)-4-methyl-8-[4-(4-pyridyl)piperazin-1-yl]-1,3,4,6,7,8,9,9a-octahydropyrido[1,2-a]pyrazin-2-yl]-2-deuterio-quinoline-8-carbonitrile]

IC50: 18 nM
Structure (SMILES): [2H]c1ccc2c(N3C[C@@H]4C[C@@H](N5CC(c6ccc(N7C[C@@H](N)[C@H](OC)C7)cc6)C5)CCN4[C@H](C)C3)ccc(C#N)c2n1 [Example 36]

IC50: 7 nM
Structure (SMILES): CO[C@H]1CN(c2ccc(O[C@H]3CCN4[C@@H](C3)CN(c3ccc(C#N)c5ncccc35)C[C@H]4C)cn2)C[C@H]1N [Example 28, 5-[(4R,8S,9aS)-8-[[6-[(3R,4S)-3-amino-4-methoxy-pyrrolidin-1-yl]-3-pyridyl]oxy]-4-methyl-1,3,4,6,7,8,9,9a-octahydropyrido[1,2-a]pyrazin-2-yl]quinoline-8-carbonitrile]

More lines, now with the values behind:

Structure (SMILES): C[C@@H]1CN(c2ccc(C#N)c3ncccc23)C[C@@H]2C[C@H](c3ccc(N4C[C@@H](N)[C@@H](F)C4)nc3)CCN21 [Example 19, 5-[(4R,8R,9aS)-8-[6-[(3R,4S)-3-amino-4-fluoro-pyrrolidin-1-yl]-3-pyridyl]-4-methyl-1,3,4,6,7,8,9,9a-octahydropyrido[1,2-a]pyrazin-2-yl]quinoline-8-carbonitrile]
IC50: 63 nM

Structure (SMILES): CO[C@@H]1CN(c2ccc([C@@H]3CCN4[C@@H](C3)CN(c3ccc(C#N)c5ncccc35)C[C@H]4C)cn2)C[C@@H]1N [Example 13, 5-[(4R,8R,9aS)-8-[6-[(3S,4R)-3-amino-4-methoxy-pyrrolidin-1-yl]-3-pyridyl]-4-methyl-1,3,4,6,7,8,9,9a-octahydropyrido[1,2-a]pyrazin-2-yl]quinoline-8-carbonitrile]
IC50: 46 nM

Structure (SMILES): C[C@@H]1CN(c2ccc(C#N)c3ncccc23)C[C@@H]2CC(c3ccc(C[C@@H]4CNCCO4)cc3)CCN21 (stereo in doubt) [Example 25, 5-[(4R,8R,9aS)-4-methyl-8-[4-[[(2R)-morpholin-2-yl]methyl]phenyl]-1,3,4,6,7,8,9,9a-octahydropyrido[1,2-a]pyrazin-2-yl]quinoline-8-carbonitrile]
IC50: 30 nM

Structure (SMILES): C[C@@H]1CN(c2ccc(C#N)c3ncccc23)C[C@@H]2C[C@@H](Oc3cnc(N4CCNCC4)nc3)CCN21 [Example 18, 5-[(4R,8S,9aS)-4-methyl-8-(2-piperazin-1-ylpyrimidin-5-yl)oxy-1,3,4,6,7,8,9,9a-octahydropyrido[1,2-a]pyrazin-2-yl]quinoline-8-carbonitrile]
IC50: 6 nM

Structure (SMILES): C[C@@H]1CN(c2ccc(C#N)c3ncccc23)C[C@@H]2C[C@H](c3ccc(N4CCNCC4)nc3)CCN21 (stereo in doubt) [Example 2, 5-[(4R,8R)-4-methyl-8-(6-piperazin-1-yl-3-pyridyl)-1,3,4,6,7,8,9,9a-octahydropyrido[1,2-a]pyrazin-2-yl]quinoline-8-carbonitrile]
IC50: 19 nM

Structure (SMILES): C[C@@H]1CN(c2ccc(C#N)c3ncccc23)C[C@@H]2C[C@@H](c3ccc(C4CNCCO4)cc3)CCN21 (stereo partly drawn) [Example 24, 5-[(4R,8S,9aS)-4-methyl-8-(4-morpholin-2-ylphenyl)-1,3,4,6,7,8,9,9a-octahydropyrido[1,2-a]pyrazin-2-yl]quinoline-8-carbonitrile]
IC50: 14 nM

Structure (SMILES): C[C@@H]1CN(c2ccc(C#N)c3ncccc23)CC2C[C@H](c3ccc(N4CCNCC4)cc3)CCN21 (stereo partly drawn) [Example 3, 5-[(4R,8R)-4-methyl-8-(4-piperazin-1-ylphenyl)-1,3,4,6,7,8,9,9a-octahydropyrido[1,2-a]pyrazin-2-yl]quinoline-8-carbonitrile]
IC50: 23 nM

Structure (SMILES): CO[C@@H]1CN(c2ccc([C@@H]3CCN4[C@@H](C3)CN(c3ccc(C#N)c5ncccc35)C[C@H]4C)cn2)C[C@H]1N [Example 14, 5-[(4R,8R,9aS)-8-[6-[(3R,4R)-3-amino-4-methoxy-pyrrolidin-1-yl]-3-pyridyl]-4-methyl-1,3,4,6,7,8,9,9a-octahydropyrido[1,2-a]pyrazin-2-yl]quinoline-8-carbonitrile]
IC50: 48 nM

Structure (SMILES): C[C@@H]1CN(c2ccc(C#N)c3ncccc23)C[C@@H]2C[C@H](NCc3ccc(N4CCNCC4)cc3)CCN21 [Example 1, 5-[(4R,8R,9aS)-4-methyl-8-[(4-piperazin-1-ylphenyl)methylamino]-1,3,4,6,7,8,9,9a-octahydropyrido[1,2-a]pyrazin-2-yl]quinoline-8-carbonitrile]
IC50: 67 nM

Structure (SMILES): C[C@@H]1CN(c2ccc(C#N)c3ncccc23)C[C@@H]2C[C@H](c3ccc(N4CC(N)C4)nc3)CCN21 [Example 7, 5-[(4R,8R,9aS)-8-[6-(3-aminoazetidin-1-yl)-3-pyridyl]-4-methyl-1,3,4,6,7,8,9,9a-octahydropyrido[1,2-a]pyrazin-2-yl]quinoline-8-carbonitrile]
IC50: 125 nM
